Series [1] addresses T1, von Hippel-Lindau disease tumor suppressor/Bromodomain-containing protein 4 (Homo sapiens, UniProt O60885+P40337). Briefly: In vivo PROTAC activity at BRD4/VHL E3 ligase in BALB/c nude mouse xenografted with human MCF7 cells assessed as reduction in BRD4 protein level in tumor 10 mg/kg measured after 48 hrs by Western blot analysis. Type of series: functional, organism-based. For orientation: A xenograft is tissue or cells of one species grown in another, often human tumour cells in immunodeficient mice.

Series [2] has as its target T1, von Hippel-Lindau disease tumor suppressor/Bromodomain-containing protein 4. Nature of the series: PROTAC activity at BRD4/VHL E3 ligase in human MDA-MB-231 cells assessed as degradation of BRD4 expression incubated for 48 hrs by Western blot analysis. Type of series: cell-based. In general terms: A western blot detects proteins with antibodies after separation by electrophoresis.

The target is the same in series [3]. Nature of the series: PROTAC activity at BRD4/VHL E3 ligase in human MDA-MB-231 cells assessed as activation of caspase-3 expression incubated for 48 hrs by Western blot analysis. Type of series: cell-based.
For series [4] the target is unchanged. Briefly: PROTAC activity at BRD4/VHL E3 ligase in human T47D cells assessed as induction of degradation of intracellular BRD4 at 200 nM incubated for 48 hrs by immunofluorescence staining assay. The series is classed as cell-based.
The target is the same in series [5]. Briefly: PROTAC activity at BRD4/VHL E3 ligase in human MCF7 cells assessed as induction of degradation of intracellular BRD4 at 200 nM incubated for 48 hrs by immunofluorescence staining assay. Type of series: cell-based.
Series [6] shares this target. Nature of the series: PROTAC activity at BRD4/VHL E3 ligase in human T47D cells assessed as degradation of BRD4 expression incubated for 48 hrs by Western blot analysis. Type of series: cell-based.
For series [7] the target is unchanged. Nature of the series: PROTAC activity at BRD4/VHL E3 ligase in human MDA-MB-231 cells assessed as decrease in BRD4 expression incubated for 48 hrs by Western blot analysis. Type of series: cell-based.
For series [8] the target is unchanged. Briefly: PROTAC activity at BRD4/VHL E3 ligase in human MCF7 cells assessed as suppression of c-Myc expression incubated for 48 hrs by Western blot analysis. Type of series: cell-based.
Series [9] has the same target. Briefly: PROTAC activity at BRD4/VHL E3 ligase in human T47D cells assessed as decrease in BRD4 expression incubated for 48 hrs by Western blot analysis. The series is classed as cell-based.
Series [10] deals with MCF7. Nature of the series: Cytotoxicity against human MCF7 cells assessed as inhbition of cell growth measured after 48 hrs by CCK-8 method. Conditions: MCF7, 48 h. The series is classed as functional, cell-based. (In general: Tetrazolium dyes change colour on reduction, which living cells bring about.)
For series [11], the target named is T1, von Hippel-Lindau disease tumor suppressor/Bromodomain-containing protein 4. Briefly: PROTAC activity at BRD4/VHL E3 ligase in human MCF7 cells assessed as degradation of BRD4 expression incubated for 48 hrs by Western blot analysis. The series is classed as cell-based.
For series [12], the system named is MCF7. Briefly: Antitumor activity against human MCF7 cells xenografted in BALB/c nude mouse assessed as tumor growth inhibition at 10 mg/kg measured after 16 days. Type of series: functional, organism-based. As to conditions: time 16.0 day.
Series [13] concerns the target T1, von Hippel-Lindau disease tumor suppressor/Bromodomain-containing protein 4. Briefly: PROTAC activity at BRD4/VHL E3 ligase in human MCF7 cells assessed as decrease in BRD4 expression incubated for 48 hrs by Western blot analysis. The series is classed as cell-based.
Series [14] relates to MCF7. Briefly: Antitumor activity against human MCF7 cells xenografted in BALB/c nude mouse assessed as fold increase in tumor volume at 10 mg/kg measured at day 23 post injection. The series is classed as functional. Conditions: time 23 day.
Series [15] has as its system MCF7. Nature of the series: Antitumor activity against human MCF7 cells xenografted in BALB/c nude mouse model assessed as inhibition of tumor cell proliferation by measuring reduction in Ki67 staining at 10 mg/kg administered for 16 days by immunohistochemical analysis. Type of series: functional, organism-based. Conditions: time 16.0 day.
Series [16] has as its target T1, von Hippel-Lindau disease tumor suppressor/Bromodomain-containing protein 4. Nature of the series: PROTAC activity at BRD4/VHL E3 ligase in human MCF7 cells assessed as activation of caspase-3 expression incubated for 48 hrs by Western blot analysis. The series is classed as cell-based.
Series [17] shares this target. Briefly: PROTAC activity at BRD4/VHL E3 ligase in human T47D cells assessed as induction of degradation of BRD4 at upto 1000 nM incubated for 48 hrs in presence of MG132 by immunofluorescence staining assay. Type of series: cell-based.
Series [18] has the same target. Nature of the series: PROTAC activity at BRD4/VHL E3 ligase in human MDA-MB-231 cells assessed as suppression of c-Myc expression incubated for 48 hrs by Western blot analysis. The series is classed as cell-based.
In series [19] the test system is T47D. Briefly: Cytotoxicity against human T47D cells assessed as inhbition of cell growth measured after 48 hrs by CCK-8 method. Type of series: functional, cell-based.
Series [20] has as its target T1, von Hippel-Lindau disease tumor suppressor/Bromodomain-containing protein 4. Nature of the series: PROTAC activity at BRD4/VHL E3 ligase in human T47D cells assessed as induction of degradation of BRD4 at upto 1000 nM incubated for 48 hrs in presence of MLN4924 by immunofluorescence staining assay. Type of series: cell-based.
A short description of series [21]: Retention time of the compound by HPLC method. Type of series: physicochemical.
Series [22] deals with T1, von Hippel-Lindau disease tumor suppressor/Bromodomain-containing protein 4. Nature of the series: PROTAC activity at BRD4/VHL E3 ligase in human T47D cells assessed as activation of caspase-3 expression incubated for 48 hrs by Western blot analysis. Type of series: cell-based.
Series [23] shares this target. Nature of the series: PROTAC activity at BRD4/VHL E3 ligase in human MDA-MB-231 cells assessed as induction of degradation of intracellular BRD4 at 200 nM incubated for 48 hrs by immunofluorescence staining assay. Type of series: cell-based.
Series [24] has the same target. Nature of the series: PROTAC activity at BRD4/VHL E3 ligase in human T47D cells assessed as suppression of c-Myc expression incubated for 48 hrs by Western blot analysis. Type of series: cell-based.
A short description of series [25]: Toxicity in BALB/c nude mouse assessed as animal death at 10 mg/kg measured after 16 days. The series is classed as organism-based. Conditions: in vivo, 384 h, time 16 day.
Series [26] relates to MDA-MB-231. Nature of the series: Cytotoxicity against human MDA-MB-231 cells assessed as inhbition of cell growth measured after 48 hrs by CCK-8 method. As to conditions: MDA-MB-231, 48 h. Type of series: functional, cell-based.
Series [27] has as its system MCF7. Nature of the series: Antitumor activity against human MCF7 cells xenografted in BALB/c nude mouse assessed as apoptosis at 10 mg/kg measured after 48 hrs by Western blot analysis. The series is classed as functional, organism-based.
Series [28] concerns MDA-MB-231. Nature of the series: Cytotoxicity against human MDA-MB-231 cells assessed as inhbition of cell growth at 20.0 uM measured after 48 hrs by CCK-8 method. The series is classed as functional, cell-based.
In series [29] the test system is T47D. Briefly: Cytotoxicity against human T47D cells assessed as inhbition of cell growth at 20.0 uM measured after 48 hrs by CCK-8 method. Type of series: functional, cell-based.

This is an account of results in ChEMBL document CHEMBL5370648, “Rational Design of Bioorthogonally Activatable PROTAC for Tumor-Targeted Protein Degradation” (J Med Chem, 2023).

Calls of active or inactive are those of the source. No cut-off for these calls is given here.

T1 sequence (P40337 whole entry, looked up, other chains not shown): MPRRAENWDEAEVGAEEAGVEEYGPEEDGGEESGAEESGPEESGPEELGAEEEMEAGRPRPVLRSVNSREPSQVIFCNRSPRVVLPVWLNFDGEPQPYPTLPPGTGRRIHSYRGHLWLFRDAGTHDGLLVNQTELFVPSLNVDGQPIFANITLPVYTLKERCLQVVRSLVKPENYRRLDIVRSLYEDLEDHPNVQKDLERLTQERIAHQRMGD

Take `Cc1ncsc1-c1ccc([C@H](C)NC(=O)[C@@H]2C[C@@H](O)CN2C(=O)[C@@H](NC(=O)COCCOCCOCCNC(=O)CC2N=C(c3ccc(Cl)cc3)c3c(sc(C)c3C)-n3c(C)nnc32)C(C)(C)C)cc1` (stereo not given in full): the outcome in series [1], in [2], in series [3], in series [4], in series [5] and in series [6] was Active. In addition, the outcome (in [8]; in [11]; in the series on MCF7 [12]; in the series with MCF7 [15]; in series [16]; in series [18]) was Active. Besides, the result (in series [22]; in [23]; in series [24]; in the series on MCF7 [27]) was Active. In addition, the figures for the concentration giving a half-maximal response (EC50) in series [7], in [9] and in series [13] were 0.00396 µM, 0.0566 µM and 0.0503 µM, respectively. Further, the IC50 in the series with MCF7 [10] came to 0.183 µM; with T47D [19], 0.253 µM; in the series on MDA-MB-231 [26], 0.225 µM. Also, in the series with MCF7 [14], the “fold change (FC)” value was found to be 1.58. Besides, the outcome in series [17] and in series [20] was inactive. The Retention_time in series [21] was 18.96 min. The Activity result in [25] is “Toxic”.

`Cc1ncsc1-c1ccc([C@H](C)NC(=O)[C@@H]2C[C@@H](OC(=O)OC3/C=C/CCCCC3)CN2C(=O)[C@@H](NC(=O)COCCOCCOCCNC(=O)CC2N=C(c3ccc(Cl)cc3)c3c(sc(C)c3C)-n3c(C)nnc32)C(C)(C)C)cc1` (stereo not given in full): the outcome in the series with MDA-MB-231 [28] and in the series on T47D [29] was inactive. This compound also had a Retention_time in series [21] of 19.3 min.

Usually EC50 stands for the midpoint of the concentration-response curve. By IC50 is commonly meant the concentration that gives 50% inhibition.
